The target of experiment [1] is PIM-1 (Homo sapiens (Human), UniProt P11309). As to the kind of experiment: PIM-1 Enzyme Assay. It counts as biochemical. The procedure: The amount of radiolabeled product is then measured by liquid scintillation counting. The final buffer conditions were as follows: 20 mM K^+MOPS, pH 7.4, 10 mM MgCl2, 0.005% Tween-20, 1 mM DTT. […] Incubations were carried out for 60 min at 22° C. and quenched with 75 μL of 200 mM H3PO4, filtered through a Whatman P81 plate and washed (1×200 μL and 5×100 μL ) with 200 mM H3PO4. Liquid scintillation cocktail (50 μL ) was then added per well, and the plate was counted for 30 s/well using a TopCount NXT.
PIM-1, sequence (P11309 whole entry, species assumed): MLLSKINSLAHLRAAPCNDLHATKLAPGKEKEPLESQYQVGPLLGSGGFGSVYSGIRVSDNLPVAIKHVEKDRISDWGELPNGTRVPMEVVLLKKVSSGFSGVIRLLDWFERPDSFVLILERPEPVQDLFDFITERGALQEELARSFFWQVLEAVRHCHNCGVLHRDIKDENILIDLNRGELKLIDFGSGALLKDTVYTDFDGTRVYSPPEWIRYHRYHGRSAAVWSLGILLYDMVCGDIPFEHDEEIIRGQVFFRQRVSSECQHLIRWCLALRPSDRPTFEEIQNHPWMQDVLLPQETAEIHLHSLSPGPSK
One-μL aliquots of these were then transferred to the assay mixtures above to give a final concentration of DMSO of 2%. […] For each plate, percent of control (POC) values were calculated for each well. IC50's were estimated from the POC's using a standard 4-parameter logistic model. The IC50 is defined as the concentration of inhibitor at which the POC equals 50 for the fitted curve.

Experiment [2] addresses GST-tagged recombinant full-length human PIM-2 (Homo sapiens (Human), UniProt Q9P1W9). Description: PIM-2 Enzyme Assay.
Where [3] appears, read: read-out: PIM-2 IC50, 4 μM ATP, […] PIM-2.
[4] abbreviates: read-out: PIM-2 IC50, 4 μM ATP, […] PIM-2, dihydrochloride.
The mark [5] stands for this setting: PIM-2 IC50 (nM), 4 μM ATP, […] PIM-2.

The values that follow come from patent publication US8575145B2, “Triazolopyridine compounds as PIM kinase inhibitors” (Array BioPharma Inc., priority 2008, dated 2013).

Where a name gives a salt, the structure may show the parent alone. Read-outs that look alike come from different tables or passages of the source.

GST-tagged recombinant full-length human PIM-2, sequence (Q9P1W9 whole entry): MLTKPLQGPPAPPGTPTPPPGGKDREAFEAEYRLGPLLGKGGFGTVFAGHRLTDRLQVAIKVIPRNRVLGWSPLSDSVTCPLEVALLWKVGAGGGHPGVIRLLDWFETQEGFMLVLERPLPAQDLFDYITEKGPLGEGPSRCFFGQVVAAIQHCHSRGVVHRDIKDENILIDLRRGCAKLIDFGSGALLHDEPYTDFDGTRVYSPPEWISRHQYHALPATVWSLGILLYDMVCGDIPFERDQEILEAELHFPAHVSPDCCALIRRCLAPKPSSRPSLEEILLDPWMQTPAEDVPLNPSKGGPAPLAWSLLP

Take `F[C@@H]1CNCC[C@@H]1Oc1cccc2ccc(-c3nnc4ccc(Br)cn34)nc12` (relative stereo) [Example 78, 2-(6-bromo-[1,2,4]triazolo[4,3-a]pyridin-3-yl)-8-((cis)-3-fluoropiperidin-4-yloxy)quinoline dihydrochloride]: the IC50 in experiment [1] (35 μM ATP, 0.25 nM PIM-1) is 8 nM; in experiment [2] (read-out: PIM-2 IC50), 1280 nM.
As to `F[C@@H]1CNCC[C@@H]1Oc1cccc2ccc(-c3nnc4ccc(C5CC5)cn34)nc12` (relative stereo) [Example 80, 2-(6-cyclopropyl-[1,2,4]triazolo[4,3-a]pyridin-3-yl)-8-((cis)-3-fluoropiperidin-4-yloxy)quinoline dihydrochloride], the IC50 in experiment [1] (35 μM ATP, 0.25 nM PIM-1) is 2 nM; in experiment [2] (setting [3]), 1160 nM.
For the compound `F[C@@H]1CNCC[C@@H]1Oc1cccc2ccc(-c3nnc4ccc(-c5ccccc5)cn34)nc12` (relative stereo) [Example 82, 8-((cis)-3-fluoropiperidin-4-yloxy)-2-(6-phenyl-[1,2,4]triazolo[4,3-a]pyridin-3-yl)quinoline dihydrochloride], the figures for the half-inhibitory concentration (IC50) in experiment [1] and in experiment [2] (setting [3]) were 3 nM and 1040 nM, respectively.
With `F[C@@H]1CCNCC[C@H]1Oc1cccc2ccc(-c3nnc4ccc(C5CC5)cn34)nc12` (relative stereo) [Example 98, 2-(6-cyclopropyl-[1,2,4]triazolo[4,3-a]pyridin-3-yl)-8-((trans)-5-fluoroazepan-4-yloxy)quinoline dihydrochloride], the IC50 in experiment [1] (35 μM ATP, 0.25 nM PIM-1) was determined as 0.7 nM; in experiment [2] (setting [3]), 661 nM.
As to `N#Cc1ccc2nnc(-c3ccc4cccc(O[C@@H]5CCNCC[C@H]5F)c4n3)n2c1` (relative stereo) [Example 101, 3-(8-((trans)-5-fluoroazepan-4-yloxy)quinolin-2-yl)-[1,2,4]triazolo[4,3-a]pyridine-6-carbonitrile dihydrochloride], the IC50 in experiment [1] (35 μM ATP, 0.25 nM PIM-1) is 13 nM; in experiment [2] (setting [3]), 1000 nM.
Take `Fc1ccc2nnc(-c3ccc4cccc(O[C@@H]5CCNCC[C@H]5F)c4n3)n2c1` (relative stereo) [Example 102, 2-(6-fluoro-[1,2,4]triazolo[4,3-a]pyridin-3-yl)-8-((trans)-5-fluoroazepan-4-yloxy)quinoline dihydrochloride]: the IC50 in experiment [1] turned out to be 4.9 nM; in experiment [2] (setting [3]), 440 nM.
As for `CN1CC[C@@H](F)[C@H](Oc2cccc3ccc(-c4nnc5ccccn45)nc23)CC1` (relative stereo) [Example 118, 2-([1,2,4]triazolo[4,3-a]pyridin-3-yl)-8-((trans)-5-fluoro-1-methylazepan-4-yloxy)quinoline], the IC50 was 3 nM in experiment [1] (35 μM ATP, 0.25 nM PIM-1) and 330 nM in experiment [2] (setting [3]).
As to `FC1CNCCC1Oc1cccc2ccc(-c3nnc4ccccn34)nc12` (single isomer, unassigned) [Example 94, 2-([1,2,4]triazolo[4,3-a]pyridin-3-yl)-8-((cis)-3-fluoropiperidin-4-yloxy)quinoline dihydrochloride], the IC50 was found to be 19.4 nM in experiment [1] (dihydrochloride) and 1000 nM in experiment [2] (setting [4]).
In the case of `FC1CNCCC1Oc1cccc2ccc(-c3nnc4ccccn34)nc12` (single isomer, unassigned) [Example 95, 2-([1,2,4]triazolo[4,3-a]pyridin-3-yl)-8-((cis)-3-fluoropiperidin-4-yloxy)quinoline dihydrochloride], the values for the IC50 in experiment [1] (dihydrochloride) and in experiment [2] (setting [4]) were 9.8 nM and 482 nM, respectively.
The like results for `FC1CNCCC1Oc1cccc2ccc(-c3nnc4ccccn34)nc12` (single isomer, unassigned) [Example 96, 2-([1,2,4]triazolo[4,3-a]pyridin-3-yl)-8-((trans)-3-fluoropiperidin-4-yloxy)quinoline dihydrochloride] were, in that order, 10.8 nM and 1000 nM.
The like results for `FC1CNCCC1Oc1cccc2ccc(-c3nnc4ccccn34)nc12` (single isomer, unassigned) [Example 97, 2-([1,2,4]triazolo[4,3-a]pyridin-3-yl)-8-((trans)-3-fluoropiperidin-4-yloxy)quinoline dihydrochloride] were, in that order, 49 nM and 1000 nM.
Regarding `CN(C)CC(C)(C)COc1cccc2ccc(-c3nnc4ccccn34)nc12` [Example 21, 3-(2-([1,2,4]triazolo[4,3-a]pyridin-3-yl)quinolin-8-yloxy)-N,N,2,2-tetramethylpropan-1-amine], the IC50 in experiment [2] (setting [3]) stood at 1350 nM.
On the same count and under the same terms, to `CC(C)(C)COc1cccc2ccc(-c3nnc4ccccn34)nc12` [Example 23, 2-([1,2,4]triazolo[4,3-a]pyridin-3-yl)-8-(neopentyloxy)quinoline] belongs 144 nM.
Take `CC(C)(CN)COc1cc(F)cc2ccc(-c3nnc4ccccn34)nc12` [Example 39, 3-(2-([1,2,4]triazolo[4,3-a]pyridin-3-yl)-6-fluoroquinolin-8-yloxy)-2,2-dimethylpropan-1-amine]: the IC50 was 0.55 nM in experiment [1] (35 μM ATP, 0.25 nM PIM-1) and 26 nM in experiment [2] (setting [3]).
For the compound `NCC(F)(F)COc1cccc2ccc(-c3nnc4ccccn34)nc12` [Example 41, 3-(2-([1,2,4]triazolo[4,3-a]pyridin-3-yl)quinolin-8-yloxy)-2,2-difluoropropan-1-amine], the IC50 in experiment [2] (setting [3]) came to 182 nM.
For the compound `N[C@H]1CC[C@@H](Oc2cccc3ccc(-c4nnc5ccccn45)nc23)CC1` [Example 42, (cis)-4-(2-([1,2,4]triazolo[4,3-a]pyridin-3-yl)quinolin-8-yloxy)cyclohexanamine], the IC50 in experiment [2] (setting [5]) was 22 nM.
`CC(C)(CN)COc1ccc(F)c2ccc(-c3nnc4ccccn34)nc12` [Example 43, 3-(2-([1,2,4]triazolo[4,3-a]pyridin-3-yl)-5-fluoroquinolin-8-yloxy)-2,2-dimethylpropan-1-amine]: the IC50 in experiment [1] (35 μM ATP, 0.25 nM PIM-1) is 139 nM; in experiment [2] (setting [3]) it was 10000 nM.
Consider `c1cncc(COc2cccc3ccc(-c4nnc5ccccn45)nc23)c1` [Example 44, 2-([1,2,4]triazolo[4,3-a]pyridin-3-yl)-8-(pyridin-3-ylmethoxy)quinoline], for which the IC50 is 63 nM in experiment [1] (35 μM ATP, 0.25 nM PIM-1) and 7470 nM in experiment [2] (setting [3]).
Take `c1cc(OCc2ccncc2)c2nc(-c3nnc4ccccn34)ccc2c1` [Example 45, 2-([1,2,4]triazolo[4,3-a]pyridin-3-yl)-8-(pyridin-4-ylmethoxy)quinoline]: the IC50 in experiment [1] (35 μM ATP, 0.25 nM PIM-1) was 26.9 nM; in experiment [2] (setting [3]), 1730 nM.
Turning to `FC1CCNCCC1Oc1cccc2ccc(-c3nnc4ccccn34)nc12` (centres unmarked) [Example 46, 2-([1,2,4]triazolo[4,3-a]pyridin-3-yl)-8-(5-fluoroazepan-4-yloxy)quinoline], the IC50 amounted to 1 nM in experiment [1] (35 μM ATP, 0.25 nM PIM-1) and 96 nM in experiment [2] (setting [5]).
Consider `COC[C@@H]1CC(Oc2cccc3ccc(-c4nnc5ccccn45)nc23)CCN1` (some centres unmarked) [Example 57], for which the IC50 in experiment [1] (35 μM ATP, 0.25 nM PIM-1) was 4 nM; in experiment [2] (setting [3]) it was 484 nM.
`CC(C)(CN)COc1c(Br)ccc2ccc(-c3nnc4ccccn34)nc12` [Example 58, 3-(2-([1,2,4]triazolo[4,3-a]pyridin-3-yl)-7-bromoquinolin-8-yloxy)-2,2-dimethylpropan-1-amine dihydrochloride]: the IC50 in experiment [1] is 10 nM; in experiment [2] (setting [3]) it was 204 nM.
In the case of `Fc1ccn2c(-c3ccc4cccc(OC5CCNCC5F)c4n3)nnc2c1` (stereo not drawn) [Example 60, cis-2-(7-fluoro-[1,2,4]triazolo[4,3-a]pyridin-3-yl)-8-3-fluoropiperidin-4-yloxy)quinoline], the IC50 in experiment [1] (35 μM ATP, 0.25 nM PIM-1) amounted to 26 nM; in experiment [2] (setting [3]), 1760 nM.
Take `CC(C)(CN)COc1cccc2ccc(-c3nnc4ccc(Br)cn34)nc12` [Example 63, 3-(2-(6-bromo-[1,2,4]triazolo[4,3-a]pyridin-3-yl)quinolin-8-yloxy)-2,2-dimethylpropan-1-amine dihydrochloride]: the IC50 in experiment [1] was found to be 0.65 nM; in experiment [2] (read-out: PIM-2 IC50), 101 nM.
Regarding `CC(C)(CN)COc1cccc2ccc(-c3nnc4ccc(-c5ccccc5)cn34)nc12` [Example 65, 2,2-Dimethyl-3-(2-(6-phenyl-[1,2,4]triazolo[4,3-a]pyridin-3-yl)quinolin-8-yloxy)propan-1-amine dihydrochloride], the IC50 in experiment [1] (35 μM ATP, 0.25 nM PIM-1) was found to be 0.8 nM; in experiment [2] (setting [3]), 174 nM.
In the case of `c1cc(OCC2(CC3CC3)CCNCC2)c2nc(-c3nnc4ccccn34)ccc2c1` [Example 69, 2-([1,2,4]triazolo[4,3-a]pyridin-3-yl)-8-44-(cyclopropylmethyl)piperidin-4-yl)methoxy)quinoline dihydrochloride], the IC50 worked out at 1.6 nM in experiment [1] and 95 nM in experiment [2] (setting [3]).
The matching figures for `CC(C)C1(COc2cccc3ccc(-c4nnc5ccccn45)nc23)CCNCC1` [Example 70, 2-([1,2,4]triazolo[4,3-a]pyridin-3-yl)-8-((4-isopropylpiperidin-4-yl)methoxy)quinoline dihydrochloride]: 0.75 nM and 67 nM.
Take `CCC(CC)(CO)COc1cccc2ccc(-c3nnc4ccccn34)nc12` [Example 131]: the IC50 in experiment [2] (setting [3]) was determined as 1000 nM.
Same read-out and setting: to `CC(C)(CCN)COc1cccc2ccc(-c3nnc4ccccn34)nc12` [Example 132, 4-(2-([1,2,4]triazolo[4,3-a]pyridin-3-yl)quinolin-8-yloxy)-3,3-dimethylbutan-1-amine] belongs 76.5 nM; to `CC(C)(CNCC(F)(F)F)COc1cccc2ccc(-c3nnc4ccccn34)nc12` [Example 136, 3-(2-([1,2,4]triazolo[4,3-a]pyridin-3-yl)quinolin-8-yloxy)-2,2-dimethyl-N-(2,2,2-trifluoroethyl)propan-1-amine], 362 nM.

By IC50 is commonly meant the concentration that inhibits the measured activity by half.
